Assay results reported in patent US8551452B2, “Uridine dietary supplementation compliance methods and use thereof” (Massachusetts Institute of Technology, priority 2007, dated 2013).

Key:
[1] = 1H-MRS of the hippocampus (3T, PRESS), metabolite ratios to administered uridine; assay type: in vivo; conditions: brain cytidine-containing metabolites (CDP choline, cytidine, CMP, CDP, CTP, dCMP, dCDP, dCTP) as ratio of administered uridine, left and right hippocampus
Procedure: MRI and ^1H-MRS are performed on a 3T scanner. Anatomical MR images are obtained in the coronal plane using a 3D magnetization-prepared rapid gradient echo (MPRAGE) sequence. The sequence is acquired with a field of view of 16 cm, 32 slices with a 3-mm slice thickness, 256×256 matrix size 600-msec inversion time, repetition time (TR) of 8 msec, echo time (TE) of 3 msec, a bandwidth of 32 kHz, and 1 excitation. These images are used to select graphically the left and right hippocampus for solvent suppressed ^1H-MRS. Single-voxel ^1H-MRS of the hippocampus is performed using point-resolved spectroscopy (PRESS). […]
Analysis is performed on the main metabolites detected by MRS, that is, CDP choline, cytidine, cytidine 5′-monophosphate (CMP), cytidine 5′-diphosphate (CDP), cytidine 5′-triphosphate (CTP), deoxycytidine 5′-monophosphate (dCMP) , deoxycytidine 5′-diphosphate (dCDP), deoxycytidine 5′-triphosphate (dCTP), all expressed as a ratio of the administered uridine (Ur). When modeling the overall correlation between the administered uridine or uridine source and metabolite ratios, the measurements of metabolite ratios from the hippocampus on both sides of the brain of each subject analyzed by using repeated measures, with a compound symmetry covariance structure, to account for the within subject correlation.

[2] = Localized 13C MRS measurement of in vivo 13C cytidine in brain (9.4 T); conditions: in vivo 13C brain cytidine content, external reference method
Procedure: All in vivo MRS studies are performed in a horizontal 9.4-T/31-cm magnet (Magnex Scientific, UK) with an 11-cm-diameter gradient coil capable of switching to 300 mT/m in 500 μs, interfaced with an INOVA console (Varian Inc., Calif., USA). A quadrature ^1H radiofrequency (RF) 14-mm-diameter coil and a linear polarized, three-turn 11-mm-diameter ^13C RF coil are used as the transceiver. A sphere containing 99% ^13C-enriched glucose (Glu) is located at the center of the ^13C coil as an external reference, and the coil is placed on the subject's head. Fast Automatic Shimming Technique by Mapping Along Projections (FASTMAP) shimming with echo-planar imaging (EPI) readout is applied to adjust B0 field homogeneity in a initially nominal ˜440 μL volume of interest (VOI). The Single-shot Inversion Recovery based Non-Echo (SIRENE) sequence is applied for 3D localization with optimized outer volume suppression to ensure elimination of signals from noncerebral tissue, and bilevel WALTZ-16 RF pulses are applied at the water frequency for generation of a nuclear Overhauser effect (NOE) and for decoupling during acquisition.
Twelve 64-scan localized ^13C MR spectra (repetition time (TR)=1 s) acquired and are summed, apodized by 20-Hz exponential line-broadening, zero-filled, and Fourier transformed. […] In vivo ^13C brain cytidine content ([^13C-Cyt]invivo) is calculated.

[3] = Localized in vivo 1H MRS of parietal white matter and occipital gray matter (1.5T) for cytidine levels; conditions: brain cytidine-containing metabolites, brain water as internal reference
Procedure: All MRI scans and localized in vivo ^1H MRS procedures are performed on a system equipped with shielded gradients (GE 1.5T Signa; General Electric Medical Systems; Milwaukee, Wis.) from 9 PM to midnight. Spectroscopy is performed following a routine brain MRI analysis, and the T2-weighted images are used for localization of an area of interest. […]
The major metabolites detectable in ^1H MRS are CDP choline, cytidine, cytidine 5′-monophosphate (CMP), cytidine 5′-diphosphate (CDP), cytidine 5′-triphosphate (CTP), deoxycytidine 5′-monophosphate (dCMP), deoxycytidine 5′-diphosphate (dCDP), deoxycytidine 5′-triphosphate (dCTP). […] The areas under the peaks is measured by Lorenzian line-shape fitting. The absolute concentrations of CDP choline, cytidine, cytidine 5′-monophosphate (CMP), cytidine 5′-diphosphate (CDP), cytidine 5′-triphosphate (CTP), deoxycytidine 5′-monophosphate (dCMP), deoxycytidine 5′-diphosphate (dCDP), deoxycytidine 5′-triphosphate (dCTP) is calculated from the processed spectrum using the brain water as an internal reference. All concentrations are expressed as millimoles per weight of uridine taken. The reference brain water signals used is fixed in the PWM and in the OGM, as calculated.

Measured: increase in metabolite ratio as a function of administered uridine or uridine source

O=c1ccn([C@@H]2O[C@H](CO)[C@@H](O)[C@H]2O)c(=O)[nH]1 [uridine]
direct correlation: all assays above
